Read-outs that look alike come from different tables or passages of the source.
Key:
[1] = molecular target: T1, monoamine oxidase B (MAO-B) (Rattus norvegicus, UniProt P19643); assay: biochemical
T1 construct: from tissue; host or cells: brain cortex of male F344/N rats (supernatant of homogenate)
T1 sequence (P19643 1-520): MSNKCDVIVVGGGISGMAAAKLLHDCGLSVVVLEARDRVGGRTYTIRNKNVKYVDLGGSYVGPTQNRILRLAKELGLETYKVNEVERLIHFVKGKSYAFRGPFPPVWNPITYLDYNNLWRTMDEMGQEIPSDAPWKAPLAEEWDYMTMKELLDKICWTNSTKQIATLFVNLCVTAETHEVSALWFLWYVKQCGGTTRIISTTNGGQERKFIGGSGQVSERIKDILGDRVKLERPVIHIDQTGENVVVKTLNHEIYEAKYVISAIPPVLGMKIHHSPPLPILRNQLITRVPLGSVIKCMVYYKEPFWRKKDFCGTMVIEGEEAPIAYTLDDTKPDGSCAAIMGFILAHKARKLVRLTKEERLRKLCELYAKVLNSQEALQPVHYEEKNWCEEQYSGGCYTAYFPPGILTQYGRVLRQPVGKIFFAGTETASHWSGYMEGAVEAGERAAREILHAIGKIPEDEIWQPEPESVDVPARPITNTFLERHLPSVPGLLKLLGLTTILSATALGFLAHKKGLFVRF
Method: At first, monoamine oxidase B (MAO-B) was purified from rat brain cortex, and then activity inhibition assay of these derivatives against monoamine oxidase B(MAO-B) was carried out.
MAO-B enzyme preparations were prepared from brain cortex of decapitalized male F344/N rats. The brain cortex in PBS solution was frozen with liquid nitrogen and kept at −80° C. for 3 days. The homogenate was then obtained by centrifugation (14,000 rpm, 10 min) of the frontal cortex in 0.1 M potassium phosphate buffer (pH 7.4) at 4° C. and the supernatant was taken as the enzyme source for MAO. A standard solution containing 0.1 M potassium phosphate buffer and albumin were prepared in different concentration grades. Ten microliters of each solution was taken and added with 200 μl of BCA kit. Following the similar method, the above supernatant from brain cortex was diluted and 10 μl of stock solution taken and added with […] of BCA kit. Both standard and sample solutions were incubated at 37° C. for 30 min. 200 μl of the solutions was added to each well of a 96-well microplate and the protein contents were measured with a fluorescence microplate reader by determining optical density at 595 nm.
To the supernatant (protein content, 80 μg/ml) in 96-well microplate was added with 1 U/ml HRP (Horseradish Peroxidase), […] benzylamine, and 50 μM Amplex red in 0.1 M potassium phosphate buffer followed by the tested sample, which was prepared in 200 μg/ml in DMSO as stock solution. These mixtures were incubated at room temperature for 60 min and optical density was determined by a fluorometric reader. Its IC50 was calculated then with the following formula. IC50: median inhibitory concentration, which is defined in this example as the concentration of a inhibitor that is needed for inhibiting 50% activity of an enzyme. Inhibition (%)=1−[(OD595 of sample/protein−[…] of sample)/OD595 of blank]×100% • OD595: Optical density at 595 nm (wavelength) • protein: protein content of control 3. Statistical Analysis

[2] = system: ERK1/2; assay: Assay for extracellular signal-regulated kinase (ERK) activity (Western blot p-ERK1/2 / ERK1/2); type: cell-based, Human; conditions: for Activation of ERK1/2 (p-ERK/ERK, (%)): 10 μM, T-20 cells, positive control = 100, mean ± SD of three experiments
Method: Cell line used in this example were same as those described in example 2.
The activation of the ERKs was measured by using anti-phospho-ERK1/2 and anti-ERK1/2 antibodies (Cell Signaling Technology). In brief, T-20 cells were grown in six-well plates at 5×10^5 cells/well and incubated with culture medium at 37° C. for 18 hours, followed by an additional incubation with culture medium containing 1 μg/ml of tetracycline at 37° C. for 18 hours. Before the experiments, we replaced the medium with DMEM containing 0.5% FBS and treated it with the tested compounds (10 μM each). After treatment, reactions were stopped by placing cells on ice and aspirating off the medium. Cells were harvested and lysed in 50 mM Tris-HCl (pH 8.0), 150 mM NaCl, 5 mM EDTA, 1 mM sodium orthovanadate, 1% Triton X-100, and protease- and phosphatase-inhibitor cocktails. Protein concentration was determined by the BCA assay (Pierce). Each cell lysate, which contained 50 μg proteins, was separated on 12% SDS-polyacrylamide electrophoresis gels, immunoblotted, and identified using anti-phospho-ERK1/2 or anti-ERK1/2 antibody. In this example, T-20 cell line treated with medium containing 1% DMSO and 1 μg/ml of tetracycline was used as positive control group; T-20 cell line treated with medium containing various compounds (10 μM), 1% DMSO and 1 μg/ml of tetracycline were used as test groups for different compounds.

[3] = molecular target: T2, γ-secretase (Homo sapiens, UniProt P49768); assay: Cell-based γ-secretase assay (luciferase reporter) in T-20 cell line
T2 construct: measure the activity of γ-secretase in T-20 cell line; endogenous in cells; host or cells: T-20 (T-REx293/HEK293 stably transfected with C99-GV/TO and Gal4-Luc)
Method: In this example, a quantitative cell-based assay described in reference (2) and (3) was employed to measure the activity of γ-secretase in T-20 cell line.
Cell lysis and the addition of reagents for luciferase assay were completed simultaneously using the Steady-Glo luciferase assay system (Promega) as described in the manufacturer's instructions. Luciferase signals were determined by a VictorLight microplate luminometer (PerkinElmer).
A quantitative cell-based γ-secretase assay in T-20 cell line described in reference (2) was employed to measure the activity of γ-secretase. In this example, said assay and cell line thereof was used to measure effect of 1,2,3,4-tetrahydroisoquinoline derivatives on the activity of γ-secretase.
T-20 cells were routinely maintained in DMEM supplemented with 10% FBS, 200 μg/ml of hygromycin, 5 μg/ml of blasticidin, and 250 μg/ml of zeocin (DMEM-HZB). The stably transfected T-20 cells were detached from culture dishes by trypsinization, washed with PBS, and resuspended in DMEM-HZB, followed by plating onto 96-well microplates (2×10^4 cells/50 μl/well) and incubating at 37° C. for 24 hours. Preliminarily, compounds diluted in DMEM-HZB were added to a final concentration of 10 μM in the presence of tetracycline (1 μg/ml). Treatments were terminated after incubation at 37° C. for 24 hours by adding directly an equivalent volume of the Steady-Glo luciferase assay reagent (Promega), and measurements of luciferase signals from each well were performed immediately with the VictorLight microplate luminometer) (PerkinElmer). Triplicates of each compound treatment were assayed. Luciferase signal from the stable line without tetracycline induction and compound treatment was referred to as one-fold of activation. Parallel testing with a cell line constitutively expressing only the luciferase reporter gene (e.g., under control of a CMV promoter) was performed as a control.
Briefly, T-20 cell line was induced by tetracycline to express C99-GV protein fragment on cell membrane.

[4] = system: soluble amyloid precursor protein α (sAPPα); assay: Effect on secretion of sAPPα in γ-30 cells (Western blot, 6E10 antibody); type: cell-based, Chinese hamster; conditions: 10 μM; for protein content of sAPPα detected by Western blot: FIG. 4A
Method: It is known that monoamine oxidase B (MAO-B) inhibitor can activate directly or indirectly ERK-related pathway, so as to regulate amyloid precursor protein (APP) proteolytic process, which lead to modulate indirectly the secretion of soluble amyloid precursor protein α (sAPPα), and inhibit indirectly the production of insoluble β amyloid-peptides (Aβ). […] Thus, in this example, assay was carried out in γ-30 cells to examine the effect of 1,2,3,4-tetrahydroisoquinoline derivatives (12a, c and d) on the secretion of sAPPα.
As described in reference (3) and (6), briefly described below. PS70 Chinese hamster ovary cell (CHO cell) was used to perform a transfection to obtain γ-30 stably transfected cell line, γ-30 stably transfected cell line was used to express then full length amyloid precursor protein (APP) and human PS1, Aph-1α2, and Pen-2 proteins (Human PS, Aph-1α2, and Pen-2). This cell line could be used as the ideal model cell for detecting α-secretase degradation of amyloid precursor protein (APP).
Each group of corresponding cell lysate in example 5 was prepared to identical protein content. Proteins with different molecular weight were separated by means of electrophoresis on SDS-PAGE and Western Blot assay was carried using anti-Aβ1-17 monoclonal antibody (6E10) (purchased from US Chemicom Co.). In this example, γ-30 cell line treated with medium containing 1% DMSO was used as negative control group, γ-30 cell lines treated with medium containing different compounds (10 μM), 1% DMSO and 1 μg/ml of tetracycline were used as test group for different compounds, respectively.
γ-30 stably transfected cell line expresses full length amyloid precursor protein (APP) and human PS1, Aph-1α2, and Pen-2 proteins. When α-secretase cleavages amyloid precursor protein (APP), soluble amyloid precursor protein α (sAPPα) is formed, which can be used to detect whether a compound has an effect on the secretion of soluble amyloid precursor protein α (sAPPα). To this end, Western blot assay using Aβ1-17 monoclonal antibody (6E10) was carried out to detect soluble amyloid precursor protein α (sAPPα). […] Thereafter, results from Western blot assay were subjected to quantitatively statistical analysis.

[5] = T20, read-out: inhibition of the activity of γ-secretase compared with positive control group

Compound | IC50 [1] | Activation of ERK1/2 (p-ERK/ERK, (%)) [2] | inhibition at 10 µM [3, 5] | protein content of sAPPα detected by Western blot [4] | relative sAPPα secretion (quantified Western blot) ([4]; FIG. 4B) | other results
C#CCN1CCc2ccc(OC(=O)N(C)CC)cc2C1 [Compound 11a, 7-(N-Methyl-N-ethylcarbamoyloxy)-N-propargyl-1,2,3,4-tetrahydroisoquinoline] | 21.5 ± 1 µM |  |  |  |  | 
C#CCN1CCc2ccc(OC(=O)N3CCCC3)cc2C1 [Compound 11b, 7-(1-Pyrrolidinecarbamoyloxy)-N-propargyl-1,2,3,4-tetrahydroisoquinoline] | 13.9 ± 0.5 µM |  |  |  |  | 
C#CCN1CCc2ccc(OC(=O)N3CCCCC3)cc2C1 [Compound 11c, 7-(1-Piperidinecarbamoyloxy)-N-propargyl-1,2,3,4-tetrahydroisoquinoline] | 15.7 ± 2.2 µM |  |  |  |  | 
C#CCN1CCc2ccc(OC(=O)N3CCOCC3)cc2C1 [Compound 11d, 7-(1-Morpholinecarbamoyloxy)-N-propargyl-1,2,3,4-tetrahydroisoquinoline] | 18.7 ± 1.6 µM |  |  |  |  | 
CCN(C)C(=O)Oc1ccc2c(c1)CN(CC1CC1)CC2 [Compound 12a, 7-(N-Methyl-N-ethylcarbamoyloxy)-N-cyclopropylmethyl-1,2,3,4-tetrahydroisoquinoline] | 12.8 ± 2 µM | 131 ± 10% | 35 to 72% | higher than that of negative control group | could promote the secretion | 
O=C(Oc1ccc2c(c1)CN(CC1CC1)CC2)N1CCCC1 [Compound 12b, 7-(1-Pyrrolidinecarbamoyloxy)-N-cyclopropylmethyl-1,2,3,4-tetrahydroisoquinoline] | 14.9 ± 1.1 µM |  |  |  |  | 
O=C(Oc1ccc2c(c1)CN(CC1CC1)CC2)N1CCCCC1 [Compound 12c, 7-(1-Piperidinecarbamoyloxy)-N-cyclopropylmethyl-1,2,3,4-tetrahydroisoquinoline] | 11.6 ± 0.7 µM | 155 ± 28 % | 35 to 72% | higher than that of negative control group | could promote the secretion | ability to activate ERK relative to rasagiline test group ([2]; 10 μM each): 1.2 times; promotion of sAPPα secretion compared with rasagiline test group ([4]; FIG. 4B): better promotion effect than rasagiline test group
O=C(Oc1ccc2c(c1)CN(CC1CC1)CC2)N1CCOCC1 [Compound 12d, 7-(1-Morpholinecarbamoyloxy)-N-cyclopropylmethyl-1,2,3,4-tetrahydroisoquinoline] | 18.5 ± 0.8 µM | 138 ± 39% | 35 to 72% | higher than that of negative control group | could promote the secretion | 
C#CCN[C@@H]1CCc2ccccc21 [Rasagiline, rasagiline, reference compound] |  | 131 ± 14% |  |  |  | inhibition at 10 µM ([3]; T20, 10 μM, T-20 cells, 24 hours, tetracycline 1 μg/ml, FIG. 2, read-out: inhibition of the activity of γ-secretase compared with positive control group): 6 to 15%

From US8173648B2 (priority 2008, dated 2012)
